Patent US9993536B2, “Peptides and combination of peptides and scaffolds for use in immunotherapy against renal cell carcinoma (RCC) and other cancers” (immatics biotechnologies GmbH, priority 2015, dated 2018)

Legend:
[1] = system: CD8+ T cells; assay: In vitro T-cell priming assay with aAPCs loaded with peptide/MHC complexes and anti-CD28 (immunogenicity, multimer staining); format: cell-based, human; settings: in vitro immunogenicity, HLA class I peptides; percentage of positive wells
Description: In order to obtain information regarding the immunogenicity of the TUMAPs of the present invention, the inventors performed investigations using an in vitro T-cell priming assay based on repeated stimulations of CD8+ T cells with artificial antigen presenting cells (aAPCs) loaded with peptide/MHC complexes and anti-CD28 antibody.
In order to perform in vitro stimulations by artificial antigen presenting cells loaded with peptide-MHC complex (pMHC) and anti-CD28 antibody, the inventors first isolated CD8+ T cells from fresh HLA-A*02 leukapheresis products via positive selection using CD8 microbeads (Miltenyi Biotec, Bergisch-Gladbach, Germany) of healthy donors obtained from the University clinics Mannheim, Germany, after informed consent.
PBMCs and isolated CD8+ lymphocytes were incubated in T-cell medium (TCM) until use consisting of RPMI-Glutamax (Invitrogen, Karlsruhe, Germany) supplemented with 10% heat inactivated human AB serum (PAN-Biotech, Aidenbach, Germany), 100 U/ml Penicillin/100 μg/ml Streptomycin (Cambrex, Cologne, Germany), 1 mM sodium pyruvate (CC Pro, Oberdorla, Germany), 20 μg/ml Gentamycin (Cambrex). 2.5 ng/ml IL-7 (PromoCell, Heidelberg, Germany) and 10 U/ml IL-2 (Novartis Pharma, Nürnberg, Germany) were also added to the TCM at this step.
Generation of pMHC/anti-CD28 coated beads, T-cell stimulations and readout was performed in a highly defined in vitro system using four different pMHC molecules per stimulation condition and 8 different pMHC molecules per readout condition.
The purified co-stimulatory mouse IgG2a anti human CD28 Ab 9.3 (Jung et al., 1987) was chemically biotinylated using Sulfo-N-hydroxysuccinimidobiotin as recommended by the manufacturer (Perbio, Bonn, Germany). Beads used were 5.6 μm diameter streptavidin coated polystyrene particles (Bangs Laboratories, Illinois, USA).
pMHC used for positive and negative control stimulations were A*0201/MLA-001 (peptide […] (SEQ ID NO. 152) from modified Melan-A/MART-1) and A*0201/DDX5-001 ([…] from DDX5 (SEQ ID NO. 153)), respectively.
800.000 beads/200 μl were coated in 96-well plates in the presence of 4×12.5 ng different biotin-pMHC, washed and 600 ng biotin anti-CD28 were added subsequently in a volume of 200 μl. Stimulations were initiated in 96-well plates by co-incubating […] CD8+ T cells with 2×10^5 washed coated beads in 200 μl TCM supplemented with 5 ng/ml IL-12 (PromoCell) for 3 days at 37° C. Half of the medium was then exchanged by fresh TCM supplemented with 80 U/ml IL-2 and incubating was continued for 4 days at 37° C. This stimulation cycle was performed for a total of three times. For the pMHC multimer readout using 8 different pMHC molecules per condition, a two-dimensional combinatorial coding approach was used as previously described (Andersen et al., 2012) with minor modifications encompassing coupling to 5 different fluorochromes. Finally, multimeric analyses were performed by staining the cells with Live/dead near IR dye (Invitrogen, Karlsruhe, Germany), CD8-FITC antibody clone SK1 (BD, Heidelberg, Germany) and fluorescent pMHC multimers. For analysis, a BD LSRII SORP cytometer equipped with appropriate lasers and filters was used. Peptide specific cells were calculated as percentage of total CD8+ cells. Evaluation of multimeric analysis was done using the FlowJo software (Tree Star, Oregon, USA). In vitro priming of specific multimer+ CD8+ lymphocytes was detected by comparing to negative control stimulations.

[2] = biological target: HLA-A*02:01 (Homo sapiens, UniProt P04439, D140Y/D185E/D98H/E176V/E277Q/G131W/G231S/I119V/I121R/I166T/I218V/L300P/L318F/N151K/N90K/P208A/P217A/Q86G/Q94H/R138H/R169H/T345S); assay: MHC binding assay (UV-ligand exchange, beta2m ELISA); settings: peptide exchange yield, HLA-A*02:01, UV-ligand exchange
Description: Candidate peptides for T cell based therapies according to the present invention were further tested for their MHC binding capacity (affinity). The individual peptide-MHC complexes were produced by UV-ligand exchange, where a UV-sensitive peptide is cleaved upon UV-irradiation, and exchanged with the peptide of interest as analyzed. Only peptide candidates that can effectively bind and stabilize the peptide-receptive MHC molecules prevent dissociation of the MHC complexes. To determine the yield of the exchange reaction, an ELISA was performed based on the detection of the light chain (β2m) of stabilized MHC complexes. The assay was performed as generally described in Rodenko et al. (Rodenko et al., 2006).
96 well MAXISorp plates (NUNC) were coated over night with 2 ug/ml streptavidin in PBS at room temperature, washed 4× and blocked for 1 h at 37° C. in 2% BSA containing blocking buffer. Refolded HLA-A*02:01/MLA-001 monomers served as standards, covering the range of 15-500 ng/ml. Peptide-MHC monomers of the UV-exchange reaction were diluted 100 fold in blocking buffer. Samples were incubated for 1 h at 37° C., washed four times, incubated with 2 ug/ml HRP conjugated anti-β2m for 1 h at 37° C., washed again and detected with TMB solution that is stopped with […]. Absorption was measured at 450 nm. Candidate peptides that show a high exchange yield (preferably higher than 50%, most preferred higher than 75%) are generally preferred for a generation and production of antibodies or fragments thereof, and/or T cell receptors or fragments thereof, as they show sufficient avidity to the MHC molecules and prevent dissociation of the MHC complexes.

| Peptide exchange (MHC class I binding score) [2] | Substance | Wells positive [%] [1] |
| --- | --- | --- |
| ++ (≥20% = ++) | 15 (ILIKHLVKV; listed as Homo sapiens) [compound 15] | + (<20% = +) |
| ++ (≥20% = ++) | 16 (FMPEELPQL; listed as Homo sapiens) [compound 16] | + (<20% = +) |
| ++ (≥20% = ++) | 20 (AVANTTFTV; listed as Homo sapiens) [compound 20] | + (<20% = +) |
| +++ (≥50 = +++) | 29 (ILLDLEQAL; listed as Homo sapiens) [compound 29] | + (<20% = +) |
| ++ (≥20% = ++) | 95 (KLTDVGIATL; listed as Homo sapiens) [compound 95] | ++++ (>=70% = ++++) |
| ++ (≥20% = ++) | 98 (KIPPVSPSI; listed as Homo sapiens) [compound 98] | ++++ (>=70% = ++++) |

More lines, now with the values behind:

| Substance | Peptide exchange (MHC class I binding score) [2] | Wells positive [%] [1] |
| --- | --- | --- |
| 2 (ILWREVVTL; listed as Homo sapiens) [compound 2] | +++ (≥50 = +++) | + (<20% = +) |
| 3 (RLLGEVQAL; listed as Homo sapiens) [compound 3] | ++ (≥20% = ++) | + (<20% = +) |
| 6 (VLFELSKTV; listed as Homo sapiens) [compound 6] | +++ (≥50 = +++) | + (<20% = +) |
| 7 (FLLSLIDRL; listed as Homo sapiens) [compound 7] | +++ (≥50 = +++) | + (<20% = +) |
| 9 (ILLQKPDSV; listed as Homo sapiens) [compound 9] | ++ (≥20% = ++) | + (<20% = +) |
